Ki data for 2 substances are collected here from PMC7261199 (Chemistry (Weinheim an der Bergstrasse, Germany), 2020).

In general, Ki refers to the dissociation constant of the complex between target and ligand, obtained from inhibition or displacement.

In this assay the target is prostate-specific membrane antigen (PSMA) (Homo sapiens, UniProt Q04609). Description: radioligand displacement of […]mTc-MIP-1427 in PSMA-expressing PC-3 PiP cells. In kind it is cell-based. For orientation: In a radioligand displacement assay an active substance lowers the binding of a labelled ligand.
Sequence of prostate-specific membrane antigen (PSMA) (Q04609 whole entry): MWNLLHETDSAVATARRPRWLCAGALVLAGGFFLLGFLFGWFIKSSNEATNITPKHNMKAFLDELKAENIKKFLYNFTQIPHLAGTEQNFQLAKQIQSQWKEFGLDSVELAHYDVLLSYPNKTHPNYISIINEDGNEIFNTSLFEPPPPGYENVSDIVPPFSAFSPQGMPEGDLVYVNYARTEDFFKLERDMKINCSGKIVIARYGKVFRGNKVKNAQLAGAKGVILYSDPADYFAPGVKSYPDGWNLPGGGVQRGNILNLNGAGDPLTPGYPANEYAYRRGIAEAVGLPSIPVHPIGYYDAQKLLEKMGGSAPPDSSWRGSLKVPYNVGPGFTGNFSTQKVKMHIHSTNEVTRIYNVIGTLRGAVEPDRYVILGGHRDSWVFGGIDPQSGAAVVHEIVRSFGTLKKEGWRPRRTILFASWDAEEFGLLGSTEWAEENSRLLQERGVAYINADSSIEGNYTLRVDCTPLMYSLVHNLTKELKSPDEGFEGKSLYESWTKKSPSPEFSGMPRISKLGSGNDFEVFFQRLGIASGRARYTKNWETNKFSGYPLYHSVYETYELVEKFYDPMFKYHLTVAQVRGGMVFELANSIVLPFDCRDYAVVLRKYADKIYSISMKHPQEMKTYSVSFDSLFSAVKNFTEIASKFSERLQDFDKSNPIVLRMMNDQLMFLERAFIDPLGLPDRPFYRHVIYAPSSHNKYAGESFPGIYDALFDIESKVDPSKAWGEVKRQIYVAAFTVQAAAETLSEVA

La(DO2Apic)-DUPA: the Ki came to 0.012 ± 0.003 µM.

La(macropa)-DUPA gave a Ki of 0.017 ± 0.002 µM.
